# According to patent EP1263429B1, “ANTIVIRAL THERAPY” (Universiteit Utrecht, priority 2000, dated 2001):
# Columns and labels:
# [1] = system: Monocyte-derived macrophages (MDM); type: cell-based, human
# Experimental: Cell viability is assessed by the MTT assay. In short, cells are incubated with MTT 3-(4,5-dimethylthiazol-2-yl)-2,5-diphenyltetrazollumbromide (Sigma) for 2 hours at 37 °C. During this time viable cells convert MTT into […] formazan dyes. Afterwards crystals are solubilised with a solution containing isopropanol. The OD of the supernatant is measured at 550 nm.
# Monocyte-derived macrophages (MDM) were obtained like described above. MDM were then washed twice and cultured for 4 to 7 days in different concentrations of APHS. After a 4 days incubation period cellular viability was assessed by MTT cytotoxicity assay where viable cells convert MTT into a colored formazan dye that can be measured spectrophotometrically.
# • Fig. 1 - Plasmids that are used for studies on the effect of compounds on HIV promotor activity. • Fig. 2 - Peripheral blood mononuclear cells (PBMC) were isolated from heparinized blood from HIV-1-, HIV-2-, and hepatitis B-seronegative donors and obtained on Ficoll-Hypaque density gradients. PBMC were washed twice and monocytes were purified by countercurrent centrifugal elutriation. […] After 4 and 5 days of incubation samples of culture supernatant were collected and p24-core antigen production was quantified using the enzyme-linked immunosorbent assay (ELISA) system of John Moore. […]
# [2] = system: drug-resistant HIV strains; conditions: Table 2 strains
smiles,measurement,setting,value
"CCCCC#CCSc1ccccc1OC(C)=O [APHS, o-(acetoxy-phenyl)hept-2-ynyl sulphide]","cytotoxicity (cellular viability, MTT)",[1],None of the tested concentrations of APHS was found to be cytotoxic
same,inhibitory activity against drug resistant strains versus activity against a sensitive strain,[2],two- to four-fold higher
